Measurements as given in US9029332B2, “Cross-linked peptides and proteins, methods of making same, and uses thereof” (The Research Foundation for The State University of New York, priority 2010, dated 2015).
Numbered stars: 1 amine (or outer) side, 2 acyl side, 3 side chain; on linkers, the order of the positions; unused ones are H or OH. Bridge positions count the residues as written; N and C are the ends. Square brackets hold non-standard residues; d marks the D form. Peptide text beside a SMILES is read from it. CH2(3,3'-bipyridine-6,6')CH2 = c1cc(C[*:1])ncc1-c1ccc(C[*:2])nc1; Biphenyl(4,4'-CH2)2 = c1cc(-c2ccc(C[*:2])cc2)ccc1C[*:1]

Key:
GST-Bcl-xL = GST-Bcl-xL (Homo sapiens, UniProt Q07817); experiment: FP binding affinity of fluorescein-labeled peptides, Bcl-xL
HeLa cells [1] = experiment: Cell viability assay (CellTiter-Glo, ATP) and DIC imaging, cytotoxicity; format: cell-based; conditions: 10 μM, 2 hours; DIC channel and ATP assay
Experimental: (§1) FIG. 8. (a) Confocal images of fixed HeLa cells after treatment with 10 μM of fluorescein-conjugated peptides for 2 hours. Scale bar=50 μm. (b) Cell viability assay using the CellTiter-Glo reagent.
Cell Viability Assay. HeLa cells were seeded into an opaque 96-well plate at a density of 1×10^4 per well in 100 μL DMEM medium supplemented with 10% FBS and the cells were allowed to grow in a 37° C. 5% CO2 incubator for 48 hrs to reach confluency of around 80%. Prior to the compound treatment, the medium was replaced with serum-free medium and the cells were incubated for 30 minutes. Appropriate amounts of peptides (1 mM in DMSO) were then added to obtain a final concentration of 10 μM and the cells were incubated at 37° C. for 2 hours. Afterwards, the plate was allowed to stand at room temperature for 30 minutes before 100 μL of Cell-Titer Glow reagent (Promega) was added. The plate was incubated at room temperature for 10 minutes. The luminescence signals were recorded with an FLX 800 luminescence plate reader (BioTek). The plotted data represented the average of the readings from 4 separate wells.

HeLa cells [2] = experiment: FACS analysis of cell permeability of fluorescein-conjugated peptides; format: cell-based; conditions: 10 μM fluorescein-conjugated peptide, 2 h
Experimental: FACS Analysis. HeLa Cells were cultured in DMEM medium supplemented with 10% fetal bovine serum in 6-well plate in a 37° C., 5% CO2 incubator to reach confluency of around 70%. The cells were then washed twice with PBS before switching to serum-free DMEM medium. After standing in the incubator for 30 minutes, appropriate amounts of peptides (1 mM in DMSO) were added to the culture plate to obtain a final peptide concentration of 10 μM. Cells were incubated at 37° C. for additional 2 hrs. Then the medium was removed and the cells were washed with PBS (3×) followed by treatment with trypsin to detach the cells. After a brief low-speed centrifugation, the HeLa cells were collected and re-suspended in PBS for the FACS analysis.

HeLa cells [3] = experiment: Confocal microscopy of fixed HeLa cells, cellular fluorescence; format: cell-based; conditions: 10 μM fluorescein-conjugated peptide, 2 hours
Experimental: as §1
HeLa Cells were seeded into 35 mm glass bottom microwell dishes (MatTek, Ashland, Mass.) at a density of 3×105 in DMEM medium supplemented with 10% fetal bovine serum, and the cells were allowed to grow in a 37° C. 5% CO2 incubator for 48 hours. After removing medium, the cells were washed twice with PBS and then incubated in serum-free DMEM medium for 30 minutes. Appropriate amounts of peptides (1 mM in DMSO) were then added to obtain a final concentration of 10 μM and cells were incubated at 37° C. for 2 hours. After PBS wash, cells were treated with 4% formaldehyde in PBS for 20 minutes at room temperature. The fixation medium was removed and the cells were washed with PBS (3×) before placing cells into the low florescent mounting medium for fluorescent imaging acquisition.

[4] = biological target: T1, full-length human MDMX (GST-MDMX) (Homo sapiens, UniProt O15151); experiment: ELISA, inhibition of p53-MDMX interaction; format: binding; conditions: relative to linear counterpart 3
T1 construct: GST-MDM2 and GST-MDMX containing full-length human MDM2 and MDMX; made in house; host or cells: Escherichia coli
T1 sequence (O15151 1-490): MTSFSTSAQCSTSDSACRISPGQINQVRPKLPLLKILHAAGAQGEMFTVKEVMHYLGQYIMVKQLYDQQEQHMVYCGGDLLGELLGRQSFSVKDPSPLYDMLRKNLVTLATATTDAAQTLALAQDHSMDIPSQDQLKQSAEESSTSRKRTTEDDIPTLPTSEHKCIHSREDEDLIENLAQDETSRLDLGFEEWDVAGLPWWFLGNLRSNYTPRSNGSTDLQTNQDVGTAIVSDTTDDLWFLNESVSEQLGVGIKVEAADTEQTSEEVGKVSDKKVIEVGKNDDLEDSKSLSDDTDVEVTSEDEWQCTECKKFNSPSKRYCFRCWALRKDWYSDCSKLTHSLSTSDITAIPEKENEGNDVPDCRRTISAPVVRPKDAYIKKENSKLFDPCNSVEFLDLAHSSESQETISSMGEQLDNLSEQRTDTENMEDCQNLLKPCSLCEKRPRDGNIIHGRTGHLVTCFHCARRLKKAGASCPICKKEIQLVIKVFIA
Source text: FIG. 10. ELISA data of the cross-linked PDI analogs. The experiments were repeated three times and the resulting data were plotted with GraphPad Prism 5.0 to derive the average IC50 values along with standard deviations.
ELISA Assay. GST-MDM2 and GST-MDMX containing full-length human MDM2 and MDMX and His6-tagged human p53 were expressed in Escherichia coli and purified by glutathione agarose and Ni^2+-nitrilotriacetic acid beads, respectively, under non-denaturing conditions. Microtiter plates were coated with 2.5 μg/ml His6-p53 in PBS buffer for 16 hours. After washing with PBS containing 0.1% Tween-20 (PBST), the plates were blocked with PBST containing 5% nonfat dry milk (PBSTM) for 30 minutes. Peptides were dissolved in DMSO. GST-MDM2 and MDMX (5 μg/ml) were mixed with peptides in PBSMT containing 10% glycerol and 10 mM dithiolthreitol prior to their additions to the wells at the specified concentrations. The incubation was allowed to proceed for 1 hour at room temperature before the plates were washed with PBST. […] The plates were developed by incubation with TMB peroxidase substrate (KPL, Gaithersburg, Md.) and measured by absorbance at 450 nm. The data was analyzed with the Origin 6.0 software. […]

HeLa cells [5] = experiment: Cellular uptake of fluorescein-labeled Noxa peptides by FACS and fluorescence microscopy; format: cell-based; conditions: 10 μM fluorescein-labeled peptide, 2 hours
Experimental: FIG. 13. […] (a) Flow cytometry analysis of cell permeability of the FITC-labeled linear or stapled peptide. HeLa cells were treated with 10 μM of fluorescein-labeled peptides in serum-free DMEM medium for 2 hours followed by fixation with formaldehyde. (b) Fluorescent micrographs of HeLa cells treated with 10 μM of fluorescein-labeled (Fl) linear or cross-linked NoxaBH3 peptide. Scale bar=50 μm.
To investigate cellular uptake of the cross-linked peptides, the N-terminal fluorescein-labeled cross-linked NoxaBH3 peptides (5a, 6a, 7a, 8a) and linear peptide Fl-Noxa-(75-93)-C75A were prepared and their uptakes into HeLa cells were examined by both FACS and fluorescence microscopy. […] To examine whether the cross-linked peptides induce apoptosis, Mcl-1-overexpressing Raji cells and K562 cells co-transfected with Mcl-1/BimEL were treated with the cross-linked peptides and the cell viabilities were measured by CellTiter-Glo reagent. […] For the remaining peptides, the following SEQ ID NOs apply: peptide 9a and 10A are SEQ ID NO:17; 11a and 12 a are SEQ ID NO:18; 5c, 5d, 5e, Fluo-5a, Fluo-6a, and Fluo-6b are SEQ ID NO:16; Fluo-NoxaB^75-94-C75A is SEQ ID NO:15; and Fluo-71 is SEQ ID NO:17.

[6] = Circular dichroism, percent helicity; format: physicochemical; conditions: compared to the linear NoxaBH3 peptide, 50 μM in 20% ACN/H2O
Experimental: FIG. 12. […] The peptides were dissolved in 20% ACN/H2O for a final concentration of 50 μM.
Circular Dichroism Study. […] The spectra were recorded in the wavelength range of 190-250 nm and averaged over 3 scans with a resolution of 0.5 nm, a bandwidth of 1.0 nm and a response time of 4 s. The sensitivity and the speed of the spectrometer were set to 100 mdeg and 50 nm/min, respectively. All peptides were dissolved in 20% acetonitrile/H2O to reach final concentration of 50 μM.

Sequence of GST-Bcl-xL (Q07817 whole entry): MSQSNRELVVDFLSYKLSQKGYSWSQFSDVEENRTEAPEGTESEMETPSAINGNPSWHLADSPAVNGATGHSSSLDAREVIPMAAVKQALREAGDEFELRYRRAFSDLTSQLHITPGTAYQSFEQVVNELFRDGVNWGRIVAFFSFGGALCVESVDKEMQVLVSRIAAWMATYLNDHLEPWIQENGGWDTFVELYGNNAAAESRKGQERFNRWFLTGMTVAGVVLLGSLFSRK

Structure (SMILES)	cytotoxicity (HeLa cells [1])	cellular fluorescence, FITC channel (HeLa cells [3])	increase in MDMX activity [4] [fold]	other results
CC[C@H](C)[C@H](NC(=O)[C@H](CCCNC(=N)N)NC(=O)[C@H](CCCNC(=N)N)NC(=O)[C@H](CC(C)C)NC(=O)[C@H](CCC(N)=O)NC(=O)[C@H](C)NC(=O)[C@H](C)NC(=O)CCCCCNC(=S)Nc1ccc2c(c1)C(=O)OC21c2ccc(O)cc2Oc2cc(O)ccc21)C(=O)NCC(=O)N[C@@H](CC(=O)O)C(=O)N[C@@H](CCCCN)C(=O)N[C@H](C(=O)N[C@@H](CC(N)=O)C(=O)N[C@@H](CC(C)C)C(=O)N[C@@H](CCCNC(=N)N)C(=O)N[C@@H](CCC(N)=O)C(=O)N[C@@H](CCCCN)C(=O)N[C@@H](CC(C)C)C(=O)N[C@@H](CC(C)C)C(=O)N[C@@H](CC(N)=O)C(N)=O)C(C)C [Fl-NoxaB^75-93-C75A]				Kd (GST-Bcl-xL): > 2 µM
CC(=O)N[C@@H](CC(C)C)C(=O)N[C@H](C(=O)N[C@@H](Cc1ccccc1)C(=O)N[C@H]1CSCc2ccc(cn2)-c2ccc(nc2)CSC[C@@H](C(=O)N[C@@H](CO)C(N)=O)NC(=O)[C@H](CC(C)C)NC(=O)[C@H](CCCNC(=N)N)NC(=O)[C@H](C)NC(=O)[C@H](Cc2c[nH]c3ccccc23)NC(=O)[C@H](Cc2ccc(O)cc2)NC(=O)[C@H](CCCNC(=N)N)NC1=O)[C@@H](C)O [Peptide 2b, LTFC″RYWARLC″S] (Ac-LTFCRYWARLCS-NH2; linker 4-11 via CH2(3,3'-bipyridine-6,6')CH2)	apparent cytotoxicity	strongest cellular fluorescence		increase in mean fluorescence / permeability by arginine substitution (HeLa cells [2]; compared to charge-neutral counterpart): 2 fold; increase in mean fluorescence by Bpy cross-linking (HeLa cells [2]; over linear counterpart): ~5 fold
CC(=O)N[C@@H](CC(C)C)C(=O)N[C@H](C(=O)N[C@@H](Cc1ccccc1)C(=O)N[C@@H]1CSCc2ccc(cc2)-c2ccc(cc2)CSC[C@@H](C(=O)N[C@@H](CO)C(N)=O)NC(=O)[C@H](CC(C)C)NC(=O)[C@H](CCC(N)=O)NC(=O)[C@H](C)NC(=O)[C@H](Cc2c[nH]c3ccccc23)NC(=O)[C@H](Cc2ccc(O)cc2)NC(=O)[C@H](Cc2c[nH]cn2)NC1=O)[C@@H](C)O [Peptide 3a, LTFc′HYWAQLC′S] (Ac-LTF[dC]HYWAQLCS-NH2; linker 4-11 via Biphenyl(4,4'-CH2)2)			15	
CC(=O)N[C@@H](CC(C)C)C(=O)N[C@H](C(=O)N[C@@H](Cc1ccccc1)C(=O)N[C@@H]1CSCc2ccc(cn2)-c2ccc(nc2)CSC[C@@H](C(=O)N[C@@H](CO)C(N)=O)NC(=O)[C@H](CC(C)C)NC(=O)[C@H](CCC(N)=O)NC(=O)[C@H](C)NC(=O)[C@H](Cc2c[nH]c3ccccc23)NC(=O)[C@H](Cc2ccc(O)cc2)NC(=O)[C@H](Cc2c[nH]cn2)NC1=O)[C@@H](C)O [Peptide 3b, LTFc″HYWAQLC″S] (Ac-LTF[dC]HYWAQLCS-NH2; linker 4-11 via CH2(3,3'-bipyridine-6,6')CH2)	did not show any cytotoxicity		24	
CC(=O)N[C@@H](CC(C)C)C(=O)N[C@H](C(=O)N[C@@H](Cc1ccccc1)C(=O)N[C@@H]1CSCc2ccc(cn2)-c2ccc(nc2)CSC[C@@H](C(=O)N[C@@H](CO)C(N)=O)NC(=O)[C@H](CC(C)C)NC(=O)[C@H](CCCNC(=N)N)NC(=O)[C@H](C)NC(=O)[C@H](Cc2c[nH]c3ccccc23)NC(=O)[C@H](Cc2ccc(O)cc2)NC(=O)[C@H](CCCNC(=N)N)NC1=O)[C@@H](C)O [Peptide 4b, LTFc″RYWARLC″S] (Ac-LTF[dC]RYWARLCS-NH2; linker 4-11 via CH2(3,3'-bipyridine-6,6')CH2; C-terminus assumed)	apparent cytotoxicity	strongest cellular fluorescence		
CC[C@H](C)[C@@H]1NC(=O)[C@H](CCCNC(=N)N)NC(=O)[C@H](CCCNC(=N)N)NC(=O)[C@H](CC(C)C)NC(=O)[C@@](C)(NC(=O)[C@H](C)NC(=O)[C@H](C)NC(C)=O)CSCc2ccc(cc2)-c2ccc(cc2)CSC[C@@](C)(C(=O)N[C@H](C(=O)N[C@@H](CC(N)=O)C(=O)N[C@@H](CC(C)C)C(=O)N[C@@H](CCCNC(=N)N)C(=O)N[C@@H](CCC(N)=O)C(=O)N[C@@H](CCCCN)C(=O)N[C@@H](CC(C)C)C(=O)N[C@@H](CC(C)C)C(=O)N[C@@H](CC(N)=O)C(N)=O)C(C)C)NC(=O)[C@H](CC(=O)O)NC(=O)CNC1=O [Peptide 8a]				cellular uptake (HeLa cells [5]): robust uptakes; enhancement in percent helicity [6]: ~3 fold
